Tests used:
[1] = system: HCC78 cells having ROS1 fusion gene; assay: HCC78 cell growth assay (CellTiter-Glo); assay type: cell-based; conditions: Homo sapiens, HCC78, 72 h, 72 hours culture, 2% FBS medium, luminescence, four separate measurements; read-out: growth inhibitory effect on HCC78 cells having ROS1 fusion gene IC50
NTRK1 = biological target: T1, NTRK1 (Homo sapiens, UniProt P04629); assay: NTRK kinase enzyme inhibitory activity evaluation, NTRK1; assay type: biochemical; conditions: FL-Peptide 27 substrate, ATP Km=33 μM, three separate measurements
T1 construct: purchased Carna Biosciences 08-186
T1 sequence (P04629 33-796): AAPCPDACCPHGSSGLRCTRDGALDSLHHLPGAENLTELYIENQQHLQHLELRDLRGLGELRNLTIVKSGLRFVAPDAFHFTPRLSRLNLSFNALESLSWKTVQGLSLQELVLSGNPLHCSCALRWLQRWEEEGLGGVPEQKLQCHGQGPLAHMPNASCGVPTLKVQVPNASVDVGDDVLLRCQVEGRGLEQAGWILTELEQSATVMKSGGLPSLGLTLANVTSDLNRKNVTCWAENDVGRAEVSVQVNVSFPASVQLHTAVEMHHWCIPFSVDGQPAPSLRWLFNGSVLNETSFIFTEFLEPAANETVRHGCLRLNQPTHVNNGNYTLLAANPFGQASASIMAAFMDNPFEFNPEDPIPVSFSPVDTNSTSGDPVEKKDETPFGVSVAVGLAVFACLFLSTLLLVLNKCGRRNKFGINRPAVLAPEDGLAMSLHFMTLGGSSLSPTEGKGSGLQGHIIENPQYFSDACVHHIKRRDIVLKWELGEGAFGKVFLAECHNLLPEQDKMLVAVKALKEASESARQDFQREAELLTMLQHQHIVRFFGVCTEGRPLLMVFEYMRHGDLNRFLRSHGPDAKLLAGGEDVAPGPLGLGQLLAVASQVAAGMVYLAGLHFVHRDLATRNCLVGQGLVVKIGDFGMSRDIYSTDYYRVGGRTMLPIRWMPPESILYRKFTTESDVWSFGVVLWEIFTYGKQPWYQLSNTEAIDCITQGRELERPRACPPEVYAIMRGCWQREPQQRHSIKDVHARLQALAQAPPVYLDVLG
Experimental: (§1) NTRK1, NTRK2, and NTRK3 kinase solutions were each prepared. […]; Next, a substrate reaction solution was prepared.
(§2) Subsequently, a reaction stop solution was prepared. The composition is as follows: 100 mM HEPES (pH 7.4), 0.015% Brij-35, 40 mM EDTA, and 0.1% Coating Reagent 3 (Caliper Life Sciences #760050).
(§3) The NTRK1, NTRK2, and NTRK3 kinase solutions were each added at a concentration of 19 μL/well to a 96-well plate. Each compound for evaluation dissolved in DMSO to achieve each final concentration was added to the plate, mixed using a plate mixer, and then preincubated at room temperature for 20 minutes. […] Then, the reaction stop solution was added thereto at a concentration of 40 μL/well. Substrate phosphorylation intensity was measured using EZ Reader II (Caliper Life Sciences). IC50 values were calculated by curve fitting using Microsoft Excel 2010 on the basis of data obtained from three separate measurements.

NTRK2 = biological target: T2, NTRK2 (Homo sapiens, UniProt Q16620); assay: NTRK kinase enzyme inhibitory activity evaluation, NTRK2; assay type: biochemical; conditions: FL-Peptide 27 substrate, ATP Km=63 μM, three separate measurements
T2 construct: purchased Carna Biosciences 08-187
T2 sequence (Q16620 32-822): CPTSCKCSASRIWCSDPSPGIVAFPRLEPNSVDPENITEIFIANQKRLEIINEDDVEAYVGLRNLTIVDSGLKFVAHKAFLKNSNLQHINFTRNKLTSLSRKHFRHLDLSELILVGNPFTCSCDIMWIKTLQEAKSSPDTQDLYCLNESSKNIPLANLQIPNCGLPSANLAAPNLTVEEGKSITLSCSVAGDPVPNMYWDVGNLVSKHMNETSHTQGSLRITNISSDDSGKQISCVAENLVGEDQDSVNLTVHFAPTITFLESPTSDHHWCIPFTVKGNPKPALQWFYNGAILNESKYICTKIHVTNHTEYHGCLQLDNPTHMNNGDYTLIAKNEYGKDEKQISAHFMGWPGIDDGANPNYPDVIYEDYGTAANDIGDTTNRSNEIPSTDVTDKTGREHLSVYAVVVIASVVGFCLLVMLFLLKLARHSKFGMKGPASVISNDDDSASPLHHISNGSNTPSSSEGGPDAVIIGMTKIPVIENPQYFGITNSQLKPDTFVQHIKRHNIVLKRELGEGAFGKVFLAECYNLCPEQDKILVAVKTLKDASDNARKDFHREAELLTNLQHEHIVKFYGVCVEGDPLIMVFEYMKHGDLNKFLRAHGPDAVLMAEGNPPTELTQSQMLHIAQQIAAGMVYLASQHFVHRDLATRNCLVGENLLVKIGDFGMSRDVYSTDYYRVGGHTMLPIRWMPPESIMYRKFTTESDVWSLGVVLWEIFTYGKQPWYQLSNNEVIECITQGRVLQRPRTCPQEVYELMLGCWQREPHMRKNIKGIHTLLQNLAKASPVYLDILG
Experimental: as §1, §2, §3

NTRK3 = biological target: T3, NTRK3 (Homo sapiens, UniProt Q16288); assay: NTRK kinase enzyme inhibitory activity evaluation, NTRK3; assay type: biochemical; conditions: FL-Peptide 27 substrate, ATP Km=32 μM, three separate measurements
T3 construct: purchased Carna Biosciences 08-197
T3 sequence (Q16288 32-839): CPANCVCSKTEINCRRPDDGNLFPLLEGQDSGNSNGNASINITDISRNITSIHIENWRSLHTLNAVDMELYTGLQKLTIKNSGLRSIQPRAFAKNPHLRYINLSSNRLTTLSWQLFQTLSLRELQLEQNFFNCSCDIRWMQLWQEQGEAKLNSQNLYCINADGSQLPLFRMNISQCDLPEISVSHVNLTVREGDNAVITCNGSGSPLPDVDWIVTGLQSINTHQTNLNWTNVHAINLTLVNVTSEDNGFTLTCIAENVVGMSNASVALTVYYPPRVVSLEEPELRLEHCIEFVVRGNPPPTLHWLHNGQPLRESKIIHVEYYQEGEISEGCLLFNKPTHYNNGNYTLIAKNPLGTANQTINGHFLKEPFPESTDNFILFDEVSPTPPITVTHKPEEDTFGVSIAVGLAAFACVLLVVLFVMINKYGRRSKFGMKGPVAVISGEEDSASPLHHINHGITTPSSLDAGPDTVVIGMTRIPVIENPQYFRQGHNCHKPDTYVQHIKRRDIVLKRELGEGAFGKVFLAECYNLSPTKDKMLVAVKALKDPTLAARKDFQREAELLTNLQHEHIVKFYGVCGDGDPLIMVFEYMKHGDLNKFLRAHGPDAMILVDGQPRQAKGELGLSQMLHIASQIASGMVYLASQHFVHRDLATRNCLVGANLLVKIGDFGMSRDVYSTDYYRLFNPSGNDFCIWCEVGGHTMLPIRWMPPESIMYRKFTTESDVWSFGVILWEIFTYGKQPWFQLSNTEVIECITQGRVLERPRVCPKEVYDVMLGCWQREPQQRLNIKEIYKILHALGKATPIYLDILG
Experimental: as §1, §2, §3

ROS1 [2] = biological target: T4, ROS1 (Homo sapiens, UniProt P08922); assay: ROS1 autophosphorylation inhibitory activity evaluation (ADP-Glo); assay type: biochemical; conditions: 200 nM inactive ROS1, ATP 1 mM, 25° C. 1.5 hours, ADP generated, four separate measurements
T4 construct: purchased Carna Biosciences 08-163
T4 sequence (P08922 28-2347): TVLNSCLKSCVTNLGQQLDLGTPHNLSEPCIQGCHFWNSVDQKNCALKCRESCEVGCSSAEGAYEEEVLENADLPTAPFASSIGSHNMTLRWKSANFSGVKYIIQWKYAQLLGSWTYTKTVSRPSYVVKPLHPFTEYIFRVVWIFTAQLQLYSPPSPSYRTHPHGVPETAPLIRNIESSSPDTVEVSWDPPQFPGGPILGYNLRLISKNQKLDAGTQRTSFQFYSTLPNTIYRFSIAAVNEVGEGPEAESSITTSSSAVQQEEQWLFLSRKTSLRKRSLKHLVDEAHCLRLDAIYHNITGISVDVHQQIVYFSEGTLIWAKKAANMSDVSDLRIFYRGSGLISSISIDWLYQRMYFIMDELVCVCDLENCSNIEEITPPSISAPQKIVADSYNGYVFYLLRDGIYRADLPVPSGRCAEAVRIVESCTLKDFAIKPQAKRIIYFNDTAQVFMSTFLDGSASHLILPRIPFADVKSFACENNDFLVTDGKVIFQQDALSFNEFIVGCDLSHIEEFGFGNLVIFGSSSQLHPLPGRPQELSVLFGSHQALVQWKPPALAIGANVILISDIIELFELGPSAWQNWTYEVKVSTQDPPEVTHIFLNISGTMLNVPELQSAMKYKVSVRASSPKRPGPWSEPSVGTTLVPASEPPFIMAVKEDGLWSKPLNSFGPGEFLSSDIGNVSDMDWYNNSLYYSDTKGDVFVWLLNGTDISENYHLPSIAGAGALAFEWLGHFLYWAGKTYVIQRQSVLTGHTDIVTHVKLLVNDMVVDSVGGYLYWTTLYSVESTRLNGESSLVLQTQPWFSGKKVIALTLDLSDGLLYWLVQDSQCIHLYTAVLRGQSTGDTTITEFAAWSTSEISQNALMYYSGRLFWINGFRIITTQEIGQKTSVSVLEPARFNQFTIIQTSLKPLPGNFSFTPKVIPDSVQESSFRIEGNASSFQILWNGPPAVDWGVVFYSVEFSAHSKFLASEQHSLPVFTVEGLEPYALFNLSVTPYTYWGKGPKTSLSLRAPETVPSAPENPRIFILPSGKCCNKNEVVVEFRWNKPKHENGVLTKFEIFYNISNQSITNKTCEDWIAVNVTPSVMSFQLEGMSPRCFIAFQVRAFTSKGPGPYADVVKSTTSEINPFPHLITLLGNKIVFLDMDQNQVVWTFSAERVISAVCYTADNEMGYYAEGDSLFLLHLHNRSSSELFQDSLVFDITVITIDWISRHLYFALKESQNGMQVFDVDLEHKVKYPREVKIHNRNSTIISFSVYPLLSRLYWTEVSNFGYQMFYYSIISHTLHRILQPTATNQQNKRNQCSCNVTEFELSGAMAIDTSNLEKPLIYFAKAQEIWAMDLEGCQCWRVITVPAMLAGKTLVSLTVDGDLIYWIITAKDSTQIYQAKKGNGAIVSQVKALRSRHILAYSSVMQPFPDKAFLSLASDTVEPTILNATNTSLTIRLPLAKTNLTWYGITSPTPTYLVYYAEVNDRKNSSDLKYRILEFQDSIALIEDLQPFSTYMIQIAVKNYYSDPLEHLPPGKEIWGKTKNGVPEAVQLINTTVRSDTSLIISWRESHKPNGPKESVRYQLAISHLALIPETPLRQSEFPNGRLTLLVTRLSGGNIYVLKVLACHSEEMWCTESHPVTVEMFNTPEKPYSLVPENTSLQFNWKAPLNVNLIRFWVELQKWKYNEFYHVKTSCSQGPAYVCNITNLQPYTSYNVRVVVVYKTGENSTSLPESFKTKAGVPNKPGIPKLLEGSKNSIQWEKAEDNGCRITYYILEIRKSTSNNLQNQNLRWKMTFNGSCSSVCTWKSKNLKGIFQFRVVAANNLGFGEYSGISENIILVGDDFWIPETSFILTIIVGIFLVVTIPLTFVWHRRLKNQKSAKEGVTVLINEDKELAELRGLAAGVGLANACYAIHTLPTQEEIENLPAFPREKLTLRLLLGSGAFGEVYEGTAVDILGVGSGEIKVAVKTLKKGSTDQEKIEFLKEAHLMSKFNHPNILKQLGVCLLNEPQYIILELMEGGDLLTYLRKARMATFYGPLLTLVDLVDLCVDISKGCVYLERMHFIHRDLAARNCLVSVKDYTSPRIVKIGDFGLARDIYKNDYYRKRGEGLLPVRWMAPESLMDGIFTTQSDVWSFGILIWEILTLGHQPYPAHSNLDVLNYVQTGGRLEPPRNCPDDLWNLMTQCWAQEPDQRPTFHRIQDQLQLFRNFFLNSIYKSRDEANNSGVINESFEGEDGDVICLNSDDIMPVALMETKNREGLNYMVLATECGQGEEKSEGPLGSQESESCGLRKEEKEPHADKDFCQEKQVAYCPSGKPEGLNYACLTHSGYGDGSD
Method in brief: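 ROS1 autophosphorylation ran with 1 mM final ATP in 50 mM HEPES pH 7.5, 10 mM MgCl2, 0.01% Brij-58, 2.5 mM DTT for 1.5 h at 25° C. ADP generated was read by ADP-Glo luminescence. IC50 values were obtained by curve fitting.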

ROS1 [3] = biological target: T4, ROS1; assay: ROS1 kinase inhibitory activity evaluation (mobility shift, EZ Reader II); assay type: biochemical; conditions: ROS1 25 pg/μL, FL-Peptide 22 substrate, three separate measurements
Experimental: Next, a substrate reaction solution was prepared. […] Then, the reaction stop solution was added thereto at a concentration of 40 μL/well. Substrate phosphorylation intensity was measured using EZ Reader II (Caliper Life Sciences).

C[C@H](N)COc1ccc(-c2cnc3ccc(N[C@H](C)c4cccc(F)c4)nn23)cc1 [Example 41, 3-[4-[(2S)-2-Aminopropoxy]phenyl]-N-[(1R)-1-(3-fluorophenyl)ethyl]imidazo[1,2-b]pyridazin-6-amine] was tested, and the IC50 [1] was less than 20 nM, the IC50 (NTRK1) was less than 5 nM and the IC50 (NTRK2) was less than 10 nM. It also gave an IC50 (NTRK3) of less than 5 nM.

In the case of COc1cc(N2C[C@@H](N)CC2=O)ccc1-c1cnc2ccc(N(C)Cc3cccc(F)c3)nn12 [Example 85, (4S)-4-Amino-1-[4-[6-[(3-fluorophenyl)methyl-methylamino]imidazo[1,2-b]pyridazin-3-yl]-3-methoxyphenyl]pyrrolidin-2-one], the IC50 [1] is reported as 20 to 100 nM, the IC50 (ROS1 [2]) is reported as less than 20 nM and the IC50 (ROS1 [3]) is reported as 1 to 10 nM. For the same compound, the IC50 (NTRK1) was less than 5 nM, the IC50 (NTRK2) was less than 10 nM and the IC50 (NTRK3) was less than 5 nM.

C[C@@H](Nc1ccc2ncc(-c3ccc(OC[C@@H]4CCN4)cc3)n2n1)c1cccc(F)c1 [Example 30, 3-[4-[[(2S)-Azetidin-2-yl]methoxy]phenyl]-N-[(1R)-1-(3-fluorophenyl)ethyl]imidazo[1,2-b]pyridazin-6-amine] gave an IC50 [1] of less than 20 nM, an IC50 (ROS1 [2]) of less than 20 nM and an IC50 (ROS1 [3]) of less than 1 nM. It also gave an IC50 (NTRK1) of less than 5 nM, an IC50 (NTRK2) of less than 10 nM and an IC50 (NTRK3) of less than 5 nM.

Work on C[C@@H](Oc1ccc2ncc(-c3ccc(N4C[C@@H](N)CC4=O)nc3)n2n1)c1cccc(F)c1 [Example 127, (4S)-4-Amino-1-[5-[6-[(1R)-1-(3-fluorophenyl)ethoxy]imidazo[1,2-b]pyridazin-3-yl]-2-pyridyl]pyrrolidin-2-one] yielded an IC50 [1] of 20 to 100 nM, an IC50 (ROS1 [2]) of less than 20 nM and an IC50 (ROS1 [3]) of less than 1 nM. For the same compound, the IC50 (NTRK1) was 10 to 15 nM, the IC50 (NTRK2) was 20 to 25 nM and the IC50 (NTRK3) was 5 to 10 nM.

Work on C[C@@H](N)COc1ccc(-c2cnc3ccc(N[C@H](C)c4cccc(F)c4)nn23)cc1 [Example 21, 3-[4-[(2R)-2-Aminopropoxy]phenyl]-N-[(1R)-1-(3-fluorophenyl)ethyl]imidazo[1,2-b]pyridazin-6-amine] yielded an IC50 [1] of less than 20 nM, an IC50 (NTRK1) of less than 5 nM and an IC50 (NTRK2) of less than 10 nM. The IC50 (NTRK3) was less than 5 nM.

CN(Cc1cccc(F)c1)c1ccc2ncc(-c3ccc(N4C[C@@H](N)CC4=O)cc3)n2n1 [Example 81, (4S)-4-Amino-1-[4-[6-[(3-fluorophenyl)methyl-methylamino]imidazo[1,2-b]pyridazin-3-yl]phenyl]pyrrolidin-2-one] gave an IC50 [1] of less than 20 nM, an IC50 (ROS1 [2]) of less than 20 nM and an IC50 (ROS1 [3]) of less than 1 nM. It also gave an IC50 (NTRK1) of less than 5 nM, an IC50 (NTRK2) of less than 10 nM and an IC50 (NTRK3) of less than 5 nM.

C[C@@H](Oc1ccc2ncc(-c3ccc(N4C[C@@H](N)CC4=O)cc3)n2n1)c1cccc(F)c1 [Example 79, (4S)-4-Amino-1-[4-[6-[(1R)-1-(3-fluorophenyl)ethoxy]imidazo[1,2-b]pyridazin-3-yl]phenyl]pyrrolidin-2-one] showed an IC50 [1] of less than 20 nM, an IC50 (ROS1 [3]) of less than 1 nM and an IC50 (NTRK1) of less than 5 nM. For the same compound, the IC50 (NTRK2) was less than 10 nM and the IC50 (NTRK3) was less than 5 nM.

With C[C@@H](Nc1ccc2ncc(-c3ccc(N4C[C@@H](N)CC4=O)cc3)n2n1)c1cccc(F)c1 [Example 90, (4S)-4-Amino-1-[4-[6-[[(1R)-1-(3-fluorophenyl)ethyl]amino]imidazo[1,2-b]pyridazin-3-yl]phenyl]pyrrolidin-2-one] the IC50 [1] was less than 20 nM, the IC50 (ROS1 [2]) was less than 20 nM and the IC50 (ROS1 [3]) was less than 1 nM. For the same compound, the IC50 (NTRK1) was less than 5 nM, the IC50 (NTRK2) was less than 10 nM and the IC50 (NTRK3) was less than 5 nM.

With C[C@@H](Nc1ccc2ncc(-c3ccc(OC[C@@H]4CCCN4)cc3)n2n1)c1cccc(F)c1 [Example 24, N-[(1R)-1-(3-Fluorophenyl)ethyl]-3-[4-[[(2S)-pyrrolidin-2-yl]methoxy]phenyl]imidazo[1,2-b]pyridazin-6-amine] the IC50 [1] was 20 to 100 nM, the IC50 (ROS1 [2]) was less than 20 nM and the IC50 (ROS1 [3]) was less than 1 nM. The IC50 (NTRK1) was less than 5 nM, the IC50 (NTRK2) was less than 10 nM and the IC50 (NTRK3) was less than 5 nM.

Compound CNCCOc1ccc(-c2cnc3ccc(N[C@H](C)c4cccc(F)c4)nn23)cc1 [Example 29, N-[(1R)-1-(3-Fluorophenyl)ethyl]-3-[4-[2-(methylamino)ethoxy]phenyl]imidazo[1,2-b]pyridazin-6-amine] has an IC50 [1] of less than 20 nM, an IC50 (ROS1 [2]) of less than 20 nM and an IC50 (ROS1 [3]) of less than 1 nM. The IC50 (NTRK1) was less than 5 nM, the IC50 (NTRK2) was less than 10 nM and the IC50 (NTRK3) was less than 5 nM.
